According to ChEMBL document CHEMBL1201862, “PubChem BioAssay data set” (2004):
Where a name gives a salt, the structure may show the parent alone. The source made the active and inactive calls.

What was measured:
Estrogen receptor [1] = target: T1, Estrogen receptor (Homo sapiens, UniProt P03372); experiment: ERα coactivator recruitment enhancers – biochemical, TR-FRET, ERα LBD, dose response (AID 737)
T1 sequence (P03372 whole entry): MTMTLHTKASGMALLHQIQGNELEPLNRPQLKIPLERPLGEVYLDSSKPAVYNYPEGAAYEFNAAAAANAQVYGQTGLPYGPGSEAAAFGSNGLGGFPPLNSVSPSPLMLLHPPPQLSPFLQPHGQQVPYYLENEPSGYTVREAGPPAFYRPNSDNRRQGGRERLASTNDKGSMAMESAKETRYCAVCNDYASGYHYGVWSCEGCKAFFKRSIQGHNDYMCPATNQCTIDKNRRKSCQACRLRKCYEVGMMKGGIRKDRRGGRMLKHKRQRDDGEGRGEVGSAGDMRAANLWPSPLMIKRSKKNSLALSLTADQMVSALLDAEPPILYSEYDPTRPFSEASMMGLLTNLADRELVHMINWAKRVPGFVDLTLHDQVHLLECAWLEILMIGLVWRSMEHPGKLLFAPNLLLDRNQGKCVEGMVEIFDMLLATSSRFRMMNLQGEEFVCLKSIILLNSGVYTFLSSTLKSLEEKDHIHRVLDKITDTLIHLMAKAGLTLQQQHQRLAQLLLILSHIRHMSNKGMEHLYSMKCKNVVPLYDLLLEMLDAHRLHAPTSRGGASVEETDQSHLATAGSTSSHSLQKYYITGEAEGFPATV

[2] = target: T2, Photoreceptor-specific nuclear receptor (Homo sapiens, UniProt Q9Y5X4); assay type: functional, cell-based;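 also: CHO-S cells with Gal4-NCOR and VP16-NR2E3 two-hybrid luciferase reporter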
T2 sequence (Q9Y5X4 whole entry, the tested form may be a part): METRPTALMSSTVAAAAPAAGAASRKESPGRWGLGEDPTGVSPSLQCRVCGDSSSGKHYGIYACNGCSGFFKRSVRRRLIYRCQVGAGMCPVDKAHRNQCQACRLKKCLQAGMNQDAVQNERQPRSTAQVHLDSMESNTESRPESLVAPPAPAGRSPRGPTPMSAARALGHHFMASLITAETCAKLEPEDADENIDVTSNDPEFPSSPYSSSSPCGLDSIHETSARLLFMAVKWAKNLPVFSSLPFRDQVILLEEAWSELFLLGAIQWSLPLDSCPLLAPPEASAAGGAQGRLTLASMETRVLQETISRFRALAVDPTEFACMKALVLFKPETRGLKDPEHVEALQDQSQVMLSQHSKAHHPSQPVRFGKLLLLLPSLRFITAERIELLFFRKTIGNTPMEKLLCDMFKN

[3] = target: Mitogen-activated protein kinase 10 (Homo sapiens, UniProt P53779); experiment: Dose response biochemical screening assay for inhibitors of c-Jun N-Terminal Kinase 3 (JNK3). [Related pubchem assays: 746 ]
[4] = target: Disintegrin and metalloproteinase domain-containing protein 17 (Homo sapiens, UniProt P78536); experiment: exosite inhibitors of ADAM17, dose response, biochemical (AID 743260)
Sequence of Disintegrin and metalloproteinase domain-containing protein 17 (P78536 whole entry, the tested form may be a part): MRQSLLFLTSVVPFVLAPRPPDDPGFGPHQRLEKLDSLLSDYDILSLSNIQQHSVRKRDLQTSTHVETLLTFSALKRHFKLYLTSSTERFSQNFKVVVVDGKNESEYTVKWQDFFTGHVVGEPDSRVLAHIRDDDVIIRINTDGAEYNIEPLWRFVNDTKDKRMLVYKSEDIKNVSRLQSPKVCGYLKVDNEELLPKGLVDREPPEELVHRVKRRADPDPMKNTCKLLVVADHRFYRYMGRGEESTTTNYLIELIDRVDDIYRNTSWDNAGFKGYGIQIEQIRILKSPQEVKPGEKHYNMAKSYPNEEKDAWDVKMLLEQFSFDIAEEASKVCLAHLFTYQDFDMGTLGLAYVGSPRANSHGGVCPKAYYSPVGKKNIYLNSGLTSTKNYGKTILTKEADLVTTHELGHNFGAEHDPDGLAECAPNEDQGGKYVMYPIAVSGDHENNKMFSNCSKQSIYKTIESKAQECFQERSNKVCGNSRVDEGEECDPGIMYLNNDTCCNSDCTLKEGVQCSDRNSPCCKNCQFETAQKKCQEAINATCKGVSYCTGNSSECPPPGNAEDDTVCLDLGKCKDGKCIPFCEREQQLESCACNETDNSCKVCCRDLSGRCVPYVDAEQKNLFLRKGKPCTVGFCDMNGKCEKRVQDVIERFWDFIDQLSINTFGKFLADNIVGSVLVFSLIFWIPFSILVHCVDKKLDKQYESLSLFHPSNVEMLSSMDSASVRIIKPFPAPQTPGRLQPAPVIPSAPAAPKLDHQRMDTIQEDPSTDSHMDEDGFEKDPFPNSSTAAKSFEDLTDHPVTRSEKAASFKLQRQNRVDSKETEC

[5] = inhibition of ADAM10 peptide cleavage – biochemical, FRET peptide substrate, recombinant human ADAM10, selectivity assay for ADAM17 exosite inhibitor project, dose response (AID 743259);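 also: ADAM10 enzyme cleaving a FRET peptide substrate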
Estrogen receptor [6] = target: T1, Estrogen receptor; experiment: blockers of SRC-3 recruitment to ERα – biochemical, ELISA, streptavidin-HRP readout, orthogonal assay, confirmation (AID 1079)
Beta-galactosidase = Beta-galactosidase (Escherichia coli, UniProt Q8VNN2); experiment: Dose response counterscreen for EBI2 assay utilizing the enzyme, b-galactosidase.; assay type: functional
[7] = microbe, parasite or virus in culture; assay type: functional; details: Mycobacterium tuberculosis
[8] = M. tuberculosis growth inhibition, HTS (AID 449762); assay type: functional
NADPH oxidase 1 [9] = target: T3, NADPH oxidase 1 (Homo sapiens, UniProt Q9Y5S8); experiment: Late-stage luminescence-based cell-based dose response assay to identify inhibitors of NADPH oxidase 1 (NOX1): Synthesized analogs 2.; assay type: functional
T3 sequence (Q9Y5S8 whole entry): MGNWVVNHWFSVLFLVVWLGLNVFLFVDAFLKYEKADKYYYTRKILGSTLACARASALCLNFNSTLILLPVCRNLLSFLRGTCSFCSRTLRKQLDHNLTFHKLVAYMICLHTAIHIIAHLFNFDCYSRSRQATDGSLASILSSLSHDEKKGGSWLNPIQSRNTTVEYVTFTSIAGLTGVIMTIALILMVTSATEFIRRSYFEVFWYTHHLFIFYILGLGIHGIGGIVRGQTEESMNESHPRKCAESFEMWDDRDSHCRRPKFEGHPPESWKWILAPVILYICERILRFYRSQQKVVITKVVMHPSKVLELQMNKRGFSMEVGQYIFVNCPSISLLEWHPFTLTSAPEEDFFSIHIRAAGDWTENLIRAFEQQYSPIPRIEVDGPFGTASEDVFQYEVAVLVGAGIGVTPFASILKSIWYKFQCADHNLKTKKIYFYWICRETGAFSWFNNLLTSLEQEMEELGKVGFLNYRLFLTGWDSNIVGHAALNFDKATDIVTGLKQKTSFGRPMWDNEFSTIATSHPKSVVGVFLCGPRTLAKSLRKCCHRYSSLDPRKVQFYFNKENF

NADPH oxidase 1 [10] = target: T3, NADPH oxidase 1; experiment: Late-stage luminescence-based cell-based dose response assay to identify inhibitors of NADPH oxidase 1 (NOX1): Synthesized analogs 3.; assay type: functional
[11] = Luminescent dose response cell-based high throughput screening assay for inhibitors of the Janus kinase 2 mutant JAK2V617F. [Related pubchem assays: 1446 (Primary screen.), 1521 (Confirmation assay.), 1486 (Counter screen.)]; assay type: functional
[12] = target: 5-hydroxytryptamine receptor 1A (Homo sapiens, UniProt P08908); assay type: functional
Sequence of 5-hydroxytryptamine receptor 1A (P08908 whole entry): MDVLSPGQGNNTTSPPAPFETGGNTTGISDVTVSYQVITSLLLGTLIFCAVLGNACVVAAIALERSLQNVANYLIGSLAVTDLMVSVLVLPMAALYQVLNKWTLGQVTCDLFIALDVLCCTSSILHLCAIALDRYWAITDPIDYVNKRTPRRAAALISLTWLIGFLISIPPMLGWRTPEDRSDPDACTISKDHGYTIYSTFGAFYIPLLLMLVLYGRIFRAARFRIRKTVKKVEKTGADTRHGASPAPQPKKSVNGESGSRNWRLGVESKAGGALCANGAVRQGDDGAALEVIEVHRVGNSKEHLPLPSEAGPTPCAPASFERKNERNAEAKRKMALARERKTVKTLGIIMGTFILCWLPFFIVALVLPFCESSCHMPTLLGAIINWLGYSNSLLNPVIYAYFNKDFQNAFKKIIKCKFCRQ

[13] = target: Peroxisome proliferator-activated receptor gamma/Nuclear receptor corepressor 2 (Homo sapiens, UniProt P37231+Q9Y618); experiment: Counterscreen for NR2E3 inverse agonists: TR-FRET-based biochemical high throughput dose response assay to identify inverse agonists of the interaction between peroxisome proliferator-activated receptor gamma (PPARg) and nuclear receptor co-repressor 2 (NCOR2).; assay type: functional
[14] = target: T2, Photoreceptor-specific nuclear receptor; experiment: ligands suppressing NR2E3 nuclear receptor activity – biochemical, TR-FRET, dose response (AID 463256); assay type: functional
[15] = HEK-293T cell viability reduction – luminescence, B-cell screen hits, cytotoxicity control for BCR NF-kB inhibitor project, dose response (AID 489021); assay type: functional, cell-based;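 also: HEK-293T cells carrying an NF-kB luciferase reporter; cells exposed to compound for about 14 hours before viability readout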
[16] = Luminescence-based counterscreen assay for KLF5 inhibitors: dose response cell-based high throughput screening assay to identify cytotoxic compounds using the IEC-6 intestinal epithelial cell line. [Related pubchem assays: 1700 (Primary screen.), 1834 (Confirmation screen.), 1858 (Summary AID.), 1905 (Counterscreen.)]; assay type: functional
Nonstructural protein 1 = Nonstructural protein 1 (Influenza A virus, UniProt Q194T2); assay type: functional, Influenza A virus (A/California/07/2009(H1N1))
Sequence of Nonstructural protein 1 (Q194T2 whole entry): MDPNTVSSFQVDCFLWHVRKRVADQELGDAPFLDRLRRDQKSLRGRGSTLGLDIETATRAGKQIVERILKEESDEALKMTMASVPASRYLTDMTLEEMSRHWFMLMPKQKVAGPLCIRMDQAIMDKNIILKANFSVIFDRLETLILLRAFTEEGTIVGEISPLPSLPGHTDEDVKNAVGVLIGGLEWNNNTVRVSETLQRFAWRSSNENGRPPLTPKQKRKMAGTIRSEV

[17] = mitochondrial function rescue without frataxin homolog – Friedreich's ataxia, plus single-dose screen, dose response (AID 1465); assay type: functional;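 also: yeast depleted of Yfh1p frataxin homolog grown on glycerol needing respiration; WST-1 tetrazolium dye reduction as measure of cellular dehydrogenase metabolic activity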
[18] = antiviral protection against BTV-induced cell death – arbovirus, BSR cells, confirmation (AID 1250); assay type: functional;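 also: protection from viral cytopathic effect measured as cell viability by ATP luminescence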
Bcl-2-like protein 10 = target: T4, Bcl-2-like protein 10 (Homo sapiens, UniProt Q9HD36); experiment: Concentration-response of Bcl-B inhibitors by biochemical FP with TR3 (AID 1243); assay type: functional
T4 sequence (Q9HD36 whole entry): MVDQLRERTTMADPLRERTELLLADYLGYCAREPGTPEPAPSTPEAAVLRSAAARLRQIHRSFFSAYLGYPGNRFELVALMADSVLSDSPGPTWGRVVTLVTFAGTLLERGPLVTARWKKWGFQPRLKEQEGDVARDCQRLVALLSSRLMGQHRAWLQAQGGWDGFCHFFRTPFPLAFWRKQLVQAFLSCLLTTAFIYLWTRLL

[19] = target: T5, Sphingosine 1-phosphate receptor 2 (Homo sapiens, UniProt O95136); experiment: Dose Response Cell Based Assay for Agonists of the S1P2 Receptor of Purchased Analogues. [Related pubchem assays: 729, 843, 854, 736 ]; assay type: functional
T5 sequence (O95136 whole entry): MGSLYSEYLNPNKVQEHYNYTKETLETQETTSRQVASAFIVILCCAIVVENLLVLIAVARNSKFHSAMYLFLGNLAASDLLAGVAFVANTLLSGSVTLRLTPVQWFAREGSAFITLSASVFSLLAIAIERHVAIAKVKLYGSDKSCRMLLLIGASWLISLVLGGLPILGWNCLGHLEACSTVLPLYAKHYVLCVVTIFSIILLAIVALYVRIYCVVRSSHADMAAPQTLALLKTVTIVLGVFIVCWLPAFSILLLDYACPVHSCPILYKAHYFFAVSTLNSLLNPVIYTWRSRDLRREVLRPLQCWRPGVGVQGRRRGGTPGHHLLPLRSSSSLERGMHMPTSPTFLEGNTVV

HT-1080 = experiment: HT1080 cell viability loss – fluorescence readout (AID 620); assay type: functional, cell-based; details: Homo sapiens
[20] = target: T6, Luciferin 4-monooxygenase (Photinus pyralis, UniProt P08659); experiment: Counter Screen for Luciferase-based Assay Positives. [Related pubchem assays: 620, 618, 411 ]
T6 sequence (P08659 whole entry): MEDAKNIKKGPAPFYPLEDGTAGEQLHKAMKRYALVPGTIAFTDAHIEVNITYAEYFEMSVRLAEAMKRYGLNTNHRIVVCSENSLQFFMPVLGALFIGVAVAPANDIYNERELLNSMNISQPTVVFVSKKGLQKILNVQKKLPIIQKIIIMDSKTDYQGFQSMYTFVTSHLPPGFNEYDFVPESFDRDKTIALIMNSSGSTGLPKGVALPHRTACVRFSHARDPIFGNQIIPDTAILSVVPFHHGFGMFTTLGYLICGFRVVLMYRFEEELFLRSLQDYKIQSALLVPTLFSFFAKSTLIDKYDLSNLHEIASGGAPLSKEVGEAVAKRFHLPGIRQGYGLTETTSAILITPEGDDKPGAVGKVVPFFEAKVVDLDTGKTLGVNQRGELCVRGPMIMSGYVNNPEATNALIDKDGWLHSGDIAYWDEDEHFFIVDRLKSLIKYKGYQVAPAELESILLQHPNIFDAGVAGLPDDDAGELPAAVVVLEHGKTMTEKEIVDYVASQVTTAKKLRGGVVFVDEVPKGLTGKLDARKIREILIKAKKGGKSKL

[21] = target: T5, Sphingosine 1-phosphate receptor 2; experiment: Dose Response Cell Based Assay for Agonists of the S1P2 Receptor. [Related pubchem assays: 729, 736, 843 ]; assay type: functional
[22] = HIV-1 Vif–A3G interaction blockers – biochemical, TR-FRET, GST-Vif 1-94, biotin-A3G peptide, dose response retest, primary screen (AID 1117319); assay type: functional;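 also: TR-FRET signal of purified GST-Vif binding a biotinylated A3G peptide; inhibitors lower the FRET signal by blocking Vif and A3G binding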
[23] = Fluorescence Cell-Based Dose Response to Identify Inhibitors of Thrombin Receptor-Activating Peptide SFLLRN-Mediated P-Selectin Induction on Platelets. [Related pubchem assays: 1663 (Primary HTS), 1889 (retest at dose ), 1891 (counterscreen), 1678 (Project Summary)]; assay type: functional
[24] = Luminescence Cell-Based Dose Confirmation HTS to Identify Inhibitors of Platelet Dense Granule Release. [Related pubchem assays: 1663 (Primary HTS), 1678 (Summary of Project)]; assay type: functional
[25] = target: T6, Luciferin 4-monooxygenase; experiment: inhibition of purified Photinus pyralis luciferase – biochemical, luminescence, dose response (AID 1891)
Genome polyprotein = Genome polyprotein (Hepatitis C virus, UniProt Q2Q167); experiment: disruption of hepatitis C core self-association – biochemical, TR-FRET, dose response (AID 2159); design: species or system Hepacivirus hominis;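 also: blocks dimerization of HCV core protein measured by TR-FRET between tagged core106 pairs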
Sequence of Genome polyprotein (Q2Q167 whole entry): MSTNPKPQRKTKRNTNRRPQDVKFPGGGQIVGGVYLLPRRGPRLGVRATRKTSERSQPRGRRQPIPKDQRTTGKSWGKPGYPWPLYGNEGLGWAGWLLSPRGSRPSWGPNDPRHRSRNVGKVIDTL

SUMO-activating enzyme [26] = target: T7, SUMO-activating enzyme (Homo sapiens, UniProt Q9UBT2); experiment: blockers of UBC9-mediated SUMO conjugation – biochemical, AlphaScreen, SUMOylation inhibitor project, confirmation (AID 2018); assay type: functional
T7 sequence (Q9UBE0 whole entry): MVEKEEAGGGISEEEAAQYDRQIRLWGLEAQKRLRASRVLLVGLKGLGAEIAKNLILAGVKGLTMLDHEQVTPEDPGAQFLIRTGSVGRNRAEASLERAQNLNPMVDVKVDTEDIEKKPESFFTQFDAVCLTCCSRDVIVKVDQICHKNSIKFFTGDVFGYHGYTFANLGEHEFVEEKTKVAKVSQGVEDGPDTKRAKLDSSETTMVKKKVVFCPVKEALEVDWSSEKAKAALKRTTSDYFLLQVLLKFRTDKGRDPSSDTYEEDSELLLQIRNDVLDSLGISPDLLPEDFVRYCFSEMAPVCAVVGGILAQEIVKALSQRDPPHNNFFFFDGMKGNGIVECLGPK
T7 sequence (Q9UBT2 whole entry): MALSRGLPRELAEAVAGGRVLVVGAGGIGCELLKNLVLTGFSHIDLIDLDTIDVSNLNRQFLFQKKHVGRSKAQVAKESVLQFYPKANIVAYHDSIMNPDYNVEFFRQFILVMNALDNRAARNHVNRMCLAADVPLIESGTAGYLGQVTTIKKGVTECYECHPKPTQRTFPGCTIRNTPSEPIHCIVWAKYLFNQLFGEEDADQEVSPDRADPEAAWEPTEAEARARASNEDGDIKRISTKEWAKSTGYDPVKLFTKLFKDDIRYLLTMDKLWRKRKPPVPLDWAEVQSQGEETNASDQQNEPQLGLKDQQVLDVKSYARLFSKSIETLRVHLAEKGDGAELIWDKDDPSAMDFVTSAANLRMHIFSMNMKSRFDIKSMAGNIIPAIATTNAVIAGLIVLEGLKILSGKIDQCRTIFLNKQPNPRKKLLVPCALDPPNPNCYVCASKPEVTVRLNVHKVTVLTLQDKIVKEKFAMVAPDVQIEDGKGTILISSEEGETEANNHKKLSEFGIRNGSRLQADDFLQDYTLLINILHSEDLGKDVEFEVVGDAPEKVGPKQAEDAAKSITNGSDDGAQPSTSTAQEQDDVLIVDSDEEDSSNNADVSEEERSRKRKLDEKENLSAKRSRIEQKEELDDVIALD

SUMO-activating enzyme [27] = target: T7, SUMO-activating enzyme; experiment: blockers of SAE1/SAE2–UBC9 SUMO transfer – biochemical, HTRF, uHTS, primary screen (AID 2006); assay type: protein-complex assay
[28] = target: Induced myeloid leukemia cell differentiation protein Mcl-1 (Homo sapiens, UniProt Q07820); assay type: functional
Sequence of Induced myeloid leukemia cell differentiation protein Mcl-1 (Q07820 whole entry): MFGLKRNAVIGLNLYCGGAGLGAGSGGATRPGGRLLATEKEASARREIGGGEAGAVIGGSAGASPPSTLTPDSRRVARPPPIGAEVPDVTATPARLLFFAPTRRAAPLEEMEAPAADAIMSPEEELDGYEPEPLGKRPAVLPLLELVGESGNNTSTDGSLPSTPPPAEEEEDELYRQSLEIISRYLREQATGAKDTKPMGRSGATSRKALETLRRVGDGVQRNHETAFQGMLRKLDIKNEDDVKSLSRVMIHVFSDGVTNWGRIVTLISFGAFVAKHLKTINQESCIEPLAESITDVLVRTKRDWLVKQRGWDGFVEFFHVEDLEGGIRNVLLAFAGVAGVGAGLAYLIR

P388/ADR = experiment: cells; assay type: functional; details: Mus musculus
[29] = Luminescence-based dose response cell-based high throughput screening assay for cytotoxic compounds using the IEC-6 intestinal epithelial cell line. [Related pubchem assays: 1858 (Summary AID.), 1825 (Counterscreen.), 1907 (Confirmation screen.)]; assay type: functional
[30] = tested on: Streptococcus sp. 'group A'; experiment: Streptococcus pyogenes SK(-)GAS viability under kanamycin – luminescence, BacTiterGlo, confirmation, counter-screen for streptokinase expression inhibitor project, dose response (AID 1900); assay type: functional, organism-based
Streptococcus = experiment: GAS UMAA2166 growth inhibition – luminescence, BacTiterGlo, counter-screen for streptokinase expression inhibitor project, dose response (AID 1915); assay type: functional, organism-based;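 also: potency for reduction of bacterial viability or growth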
P388 = experiment: cells; assay type: functional; details: Mus musculus, P388
Streptokinase A = target: T8, Streptokinase A (Streptococcus pyogenes serotype M1, UniProt P10520); experiment: viability-normalized secreted streptokinase activity reduction – plasminogen activation absorbance, OD405, dose response (AID 1914); assay type: functional, Streptococcus pyogenes M1 GAS;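 also: secreted streptokinase activity via plasminogen activation per viability signal from cell pellet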
T8 sequence (P10520 whole entry): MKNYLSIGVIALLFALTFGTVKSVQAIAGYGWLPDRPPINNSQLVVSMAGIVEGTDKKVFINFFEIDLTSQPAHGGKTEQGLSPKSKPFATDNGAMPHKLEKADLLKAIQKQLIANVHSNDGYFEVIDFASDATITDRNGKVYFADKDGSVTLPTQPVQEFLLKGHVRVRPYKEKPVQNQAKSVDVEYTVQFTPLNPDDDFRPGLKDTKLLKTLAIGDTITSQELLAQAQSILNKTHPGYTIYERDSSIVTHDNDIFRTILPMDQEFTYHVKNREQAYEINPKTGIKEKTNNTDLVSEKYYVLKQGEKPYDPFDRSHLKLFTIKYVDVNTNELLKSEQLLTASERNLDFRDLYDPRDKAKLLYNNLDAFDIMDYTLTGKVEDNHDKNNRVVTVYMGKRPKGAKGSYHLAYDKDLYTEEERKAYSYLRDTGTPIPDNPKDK

SN12K1 = experiment: cells; assay type: functional; details: Homo sapiens, SN12K1

## Cc1ccc(NC(=O)CSc2nnnn2-c2ccc3c(c2)OCO3)cc1C
Estrogen receptor [1]
  EC50: 8.47 µM (active)
[2]
  IC50: 0.581 µM (active)

## C=C(C)COc1ccc(-c2nc(N)ncc2-c2ccc(OC)cc2)c(O)c1
[3]
  IC50: 29.4 µM (not active)
[4]
  IC50: > 69.5 µM (inactive)
[5]
  IC50: > 69.5 µM (inactive)

## O=C(CCCn1c(=S)[nH]c2ccccc2c1=O)N1CCN(c2ccccc2O)CC1
Estrogen receptor [6]
  IC50: 0.07 µM (not active)

## O=C(c1cc2cc(Cl)ccc2[nH]1)N1CCN(Cc2ccc3c(c2)OCO3)CC1
Beta-galactosidase
  IC50: > 80 µM (inactive)
[7]
  CC50: > 40 µM (active)
[8]
  IC50: > 100 µM (active)

## CN1c2ccc(Br)cc2Sc2cc(Br)ccc21
NADPH oxidase 1 [9]
  IC50: > 50 µM (not active)

## CN1c2ccccc2Sc2cc(C(=O)c3ccccc3)ccc21
NADPH oxidase 1 [10]
  IC50: > 20 µM (not active)

## Cc1nn2c(NCc3ccccn3)c3c(nc2c1-c1ccccc1)CCC3
[11]
  IC50: 1.03 µM (active)

## CCOC(=O)C1CCN(C(=O)Cc2c(C(=O)O)n(C)c3ccccc23)CC1
[12]
  EC50: > 50 µM (not active)

## Cc1cc(C)nc(NS(=O)(=O)c2ccc(NC(=O)CSc3nc[nH]n3)cc2)n1
[13]
  IC50: > 39.8 µM (not active)
[14]
  IC50: > 39.8 µM (not active)

## Cc1ccc(/C=C2/SC(=S)N(CCCC(=O)Nc3ccc(O)cc3)C2=O)cc1
[15]
  IC50: > 80 µM (inactive)
[16]
  IC50: 14.1 µM (not active)

## CC(C)(C)C1=CC(=O)C(N2CCOCC2)=CC1=O
Nonstructural protein 1
  IC50: > 100 µM (active)
[17]
  EC50: > 100 µM (active)

## N#Cc1c(O)nc(SCC(=O)Nc2nnc(C(F)(F)F)s2)nc1-c1ccccc1
[18]
  IC50: 28.1 µM (active)

## OC1=c2ccccc2=C(O)C12N=Nc1nnc(S)n1N2
Bcl-2-like protein 10
  EC50: 23.8 µM (active)

## Cc1cc(C(=O)COC(=O)C(O)c2ccccc2)c(C)n1Cc1ccccc1 (stereo not given)
[19]
  EC50: > 30 µM (not active)

## CCOC(=O)CNC(=O)CSc1ncnc2c1cnn2-c1ccc(C)cc1
HT-1080
  EC50: > 50 µM (not active)
[20]
  EC50: < 0.2 µM (active)

## CCOC(=O)c1c(C)n(C)c2ccc(OCC(O)Cn3nc(C)cc3C)cc12 (stereo not given)
[21]
  EC50: 4.71 µM (active)

## Cn1cc(CN2CCN(CCO)CC2)c(-c2ccc(Oc3ccccc3)cc2)n1
[22]
  IC50: > 100 µM (active)

## CCc1ccc(S(=O)(=O)N/N=C\c2ccc([N+](=O)[O-])o2)cc1
[23]
  EC50: < 30 µM (active)
[24]
  EC50: 2.02 µM (active)
[25]
  EC50: > 112 µM (not active)

## COc1ccccc1/C=C/C=c1\sc2nc(=O)c(Cc3ccccc3)nn2c1=O
Genome polyprotein
  IC50: > 49.8 µM (not active)
SUMO-activating enzyme [26]
  IC50: 8.53 µM (active)
SUMO-activating enzyme [27]
  IC50: 11.8 µM (active)

## CN(C)c1ccc(/C=N/N(Cc2ccccc2)c2ccccc2)cc1
[28]
  IC50: 1.52 µM (not active)

## N=c1ccn2c(n1)O[C@H]1[C@H](O)[C@@H](CO)O[C@H]12 [ANCITABINE HYDROCHLORIDE]
P388/ADR
  GI50: 0.205 µM (active)
[29]
  IC50: 1.79 µM (active)
[30]
  EC50: 3.2 µM (active)
Streptococcus
  EC50: 53.1 µM (active)
P388
  GI50: 0.103 µM (active)
Streptokinase A
  EC50: > 150 µM (not active)
SN12K1
  GI50: 0.191 µM (active)
